Series [1] is described as follows: Toxicity in DAT knockout C57BL/6J mouse assessed as hypothermia at 1 mg/kg, ip. It counts as organism-based. The following applies: in vivo.
Series [2] is described as follows: Toxicity in DAT knockout C57BL/6J mouse assessed as hypotension at 1 mg/kg, ip. It counts as organism-based. The settings on record: in vivo.
Series [3] concerns the target T1, Alpha-2A adrenergic receptor (Homo sapiens) (UniProt P08913).
T1 sequence (whole entry): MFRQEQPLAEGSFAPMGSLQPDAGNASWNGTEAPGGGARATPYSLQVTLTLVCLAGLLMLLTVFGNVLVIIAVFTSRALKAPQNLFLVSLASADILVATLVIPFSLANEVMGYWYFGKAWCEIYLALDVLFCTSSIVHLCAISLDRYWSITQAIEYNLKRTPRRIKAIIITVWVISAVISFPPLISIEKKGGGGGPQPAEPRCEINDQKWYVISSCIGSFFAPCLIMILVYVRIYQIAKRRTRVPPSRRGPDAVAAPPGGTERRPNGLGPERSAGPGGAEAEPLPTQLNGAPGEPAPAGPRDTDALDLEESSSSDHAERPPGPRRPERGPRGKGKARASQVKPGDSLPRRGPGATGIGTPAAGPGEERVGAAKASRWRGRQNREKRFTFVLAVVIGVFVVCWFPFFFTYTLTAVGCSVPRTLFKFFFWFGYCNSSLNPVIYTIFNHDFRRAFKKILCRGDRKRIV
Briefly: Binding affinity to alpha2A adrenoceptor (unknown origin) at 5 uM relative to control.

Series [4] addresses Neurotensin receptor type 2 (Homo sapiens) (UniProt O95665). Briefly: Allosteric modulation of NTR2 (unknown origin) assessed as induction of NT (8 to 13) peptide-mediated beta-arrestin recruitment at >80 uM by pathhunter assay. For orientation: Arrestin recruitment assays detect the binding of arrestin to an activated receptor.
Series [5] has as its target Neurotensin receptor type 1 (Mus musculus) (UniProt O88319). In words: Positive allosteric modulation of NTR1 in ICR mouse brain assessed as increase in [125I]-neurotensin binding measured after 20 mins. It counts as tissue-based.
Series [6] has as its target G-protein coupled receptor 35 (Homo sapiens) (UniProt Q9HC97). Briefly: Allosteric modulation of human PK-tagged Gi/Go-coupled GPR35 expressed in CHOK1 cells assessed as induction of zaprinast-mediated beta-arrestin recruitment by pathhunter assay. It counts as cell-based.
Series [7] concerns Mus musculus. In words: Suppression of hyperlocomotion in DAT knockout C57BL/6J mouse assessed as reduction in total distance traveled at 10 to 100 mg/kg, po measured up to 2 hrs by open field test. It counts as functional, organism-based.
Series [8] concerns the target Histamine H1 receptor (Homo sapiens) (UniProt P35367). In words: Binding affinity to H1R (unknown origin) at 5 uM relative to control.
Series [9] concerns Mus musculus. Briefly: Suppression of hyperlocomotion in DAT knockout C57BL/6J mouse assessed as reduction in total distance traveled at 12 mg/kg, ip measured up to 2 hrs by open field test. It counts as functional, organism-based.
Series [10] addresses 5-hydroxytryptamine receptor 2B (Homo sapiens) (UniProt P41595). Briefly: Binding affinity to 5HT2B (unknown origin) at 5 uM relative to control.
Series [11] concerns the target Kappa-type opioid receptor (Homo sapiens) (UniProt P41145). Briefly: Allosteric modulation of human PK-tagged Gi/Go-coupled KOR expressed in CHOK1 cells assessed as induction of dynorphin A-mediated beta-arrestin recruitment by pathhunter assay. Format: cell-based.
Series [12] deals with T2, Neurotensin receptor type 1 (Homo sapiens, UniProt P30989). Briefly: Positive allosteric modulation of recombinant human NTR1 expressed in HEK293 cells assessed as increase in [125I]-neurotensin binding measured after 45 mins relative to control. It counts as cell-based.
T2 sequence (P30989 whole entry): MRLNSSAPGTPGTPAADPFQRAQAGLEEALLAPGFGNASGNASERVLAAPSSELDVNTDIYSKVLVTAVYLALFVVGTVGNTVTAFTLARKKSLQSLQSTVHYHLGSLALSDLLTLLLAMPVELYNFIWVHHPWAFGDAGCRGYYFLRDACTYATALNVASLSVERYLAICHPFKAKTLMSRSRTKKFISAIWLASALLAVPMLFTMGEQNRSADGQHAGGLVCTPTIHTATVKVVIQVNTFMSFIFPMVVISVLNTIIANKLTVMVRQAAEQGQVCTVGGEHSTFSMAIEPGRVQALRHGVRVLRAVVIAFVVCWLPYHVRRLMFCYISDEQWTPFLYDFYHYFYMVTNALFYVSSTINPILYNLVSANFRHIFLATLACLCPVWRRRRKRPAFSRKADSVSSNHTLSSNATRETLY
Series [13] has as its target T2, Neurotensin receptor type 1. In words: Agonist activity at NTR1 (unknown origin) expressed in CHO cells assessed as effect on calcium flux by Fluo-4 NW calcium dye based fluorescence assay. It counts as functional, cell-based. (In general: Calcium assays in cells follow changes in intracellular calcium, usually with a dye or a luminescent sensor.)
Series [14] shares this target. In words: Allosteric modulation of human GFP-fused PK-tagged Gq-coupled NTR1 expressed in CHOK1 cells assessed as induction of NT (8 to 13) peptide-mediated beta-arrestin recruitment measured after 90 mins by pathhunter assay relative to NT (8 to 13) peptide. It counts as cell-based.
Series [15] has as its target D(1A) dopamine receptor (Homo sapiens) (UniProt P21728). Briefly: Binding affinity to D1R (unknown origin) at 5 uM relative to control.
Series [16] concerns the target T2, Neurotensin receptor type 1. Briefly: Allosteric modulation of human GFP-fused PK-tagged Gq-coupled NTR1 expressed in CHOK1 cells assessed as induction of NT (8 to 13) peptide-mediated beta-arrestin recruitment at 0.5 to 356 nM measured after 90 mins by pathhunter assay. Format: cell-based.
In series [17] the target is Neurotensin receptor type 2 (Homo sapiens) (UniProt O95665). In words: Positive allosteric modulation of recombinant human NTR2 expressed in HEK293 cells assessed as increase in [125I]-neurotensin binding measured after 3 hrs. Format: cell-based.
Sequence of Neurotensin receptor type 2 (Homo sapiens) (O95665 whole entry): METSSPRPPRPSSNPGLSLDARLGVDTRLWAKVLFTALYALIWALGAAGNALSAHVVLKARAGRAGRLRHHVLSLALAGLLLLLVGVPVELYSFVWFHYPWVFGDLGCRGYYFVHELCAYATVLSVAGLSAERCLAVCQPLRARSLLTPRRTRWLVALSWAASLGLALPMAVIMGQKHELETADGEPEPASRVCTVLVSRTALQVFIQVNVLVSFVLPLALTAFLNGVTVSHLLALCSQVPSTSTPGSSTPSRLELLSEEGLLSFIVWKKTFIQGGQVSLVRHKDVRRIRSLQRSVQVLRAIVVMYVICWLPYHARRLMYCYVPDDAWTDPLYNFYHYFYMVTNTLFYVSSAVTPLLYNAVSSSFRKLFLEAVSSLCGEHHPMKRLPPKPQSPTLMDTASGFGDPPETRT
The target in series [18] is G-protein coupled receptor 55 (Homo sapiens) (UniProt Q9Y2T6). Briefly: Allosteric modulation of human PK-tagged Gq-coupled GPR55 expressed in CHOK1 cells assessed as induction of L-alpha-Lysophosphatidylinositol-mediated beta-arrestin recruitment by pathhunter assay. Format: functional, cell-based.
Sequence of G-protein coupled receptor 55 (Homo sapiens) (Q9Y2T6 whole entry): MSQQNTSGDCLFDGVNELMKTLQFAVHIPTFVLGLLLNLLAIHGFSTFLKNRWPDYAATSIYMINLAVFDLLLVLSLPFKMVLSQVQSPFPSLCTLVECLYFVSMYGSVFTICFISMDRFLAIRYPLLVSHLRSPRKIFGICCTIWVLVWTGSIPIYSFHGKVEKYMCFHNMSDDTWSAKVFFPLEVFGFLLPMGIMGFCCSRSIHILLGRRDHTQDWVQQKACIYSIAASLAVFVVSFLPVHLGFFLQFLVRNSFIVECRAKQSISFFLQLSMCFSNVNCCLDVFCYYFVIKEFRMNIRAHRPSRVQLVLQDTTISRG
The nature of series [19]: Volume of distribution in C57BL/6 mouse at 5 mg/kg, iv by LC-MS/MS analysis. Format: ADME, organism-based. The settings on record: in vivo.
Series [20] addresses T2, Neurotensin receptor type 1. In words: Allosteric modulation of human GFP-fused PK-tagged Gq-coupled NTR1 expressed in CHOK1 cells assessed as induction of NT (8 to 13) peptide-mediated beta-arrestin recruitment measured after 90 mins by pathhunter assay. Format: cell-based.
Series [21] can be described thus: Clearance in C57BL/6 mouse at 5 mg/kg, iv by LC-MS/MS analysis. It counts as ADME, organism-based. The following applies: in vivo.
Series [22] has as its target Neurotensin receptor type 1 (Rattus norvegicus, UniProt P20789). Briefly: Displacement of [125I]neurotensin from rat brain NTR1. For orientation: Displacement assays read how much labelled ligand stays bound in the presence of the test substance.
Series [23] addresses T2, Neurotensin receptor type 1. Briefly: Positive allosteric modulation of recombinant human NTR1 expressed in HEK293 cells assessed as increase in [125I]-neurotensin binding measured after 45 mins. Format: cell-based.
Series [24] is described as follows: Toxicity in DAT knockout C57BL/6J mouse assessed as hypotension at 12 mg/kg, ip. Format: organism-based. The settings on record: in vivo.
Series [25] is described as follows: Ratio of drug level in brain to plasma of Sprague-Dawley rat at 30 mg/kg, po measured after 4 to 8 hrs by LC-MS/MS analysis. It counts as ADME, organism-based. The settings on record: brain and plasma, read-out: BPR.
The nature of series [26]: Clearance in Sprague-Dawley rat at 5 mg/kg, iv by LC-MS/MS analysis. It counts as ADME, organism-based. The following applies: in vivo.
Series [27] can be described thus: Toxicity in DAT knockout C57BL/6J mouse assessed as hypothermia at 12 mg/kg, ip. Format: organism-based. The settings on record: in vivo.
Series [28] in a line: Cmax in C57BL/6 mouse at 30 mg/kg, po by LC-MS/MS analysis. Format: ADME, organism-based. Set-up: dose 30 mg/kg, route oral. The following applies: in vivo.
Series [29] in a line: Ratio of drug level in brain to plasma of C57BL/6 mouse at 30 mg/kg, po measured after 1 hr by LC-MS/MS analysis. Format: ADME, organism-based.
Series [30] is described as follows: Oral bioavailability in C57BL/6 mouse at 30 mg/kg by LC-MS/MS analysis. Format: ADME, organism-based. The following applies: in vivo.
The nature of series [31]: Half life in C57BL/6 mouse at 30 mg/kg, po by LC-MS/MS analysis. Format: ADME, organism-based. The following applies: in vivo.
Series [32] can be described thus: AUC in C57BL/6 mouse at 30 mg/kg, po by LC-MS/MS analysis. The following applies: in vivo. Format: ADME, organism-based.
A short description of series [33]: Half life in Sprague-Dawley rat at 30 mg/kg, po by LC-MS/MS analysis. The settings on record: in vivo. Format: ADME, organism-based.
Series [34] in a line: AUC in Sprague-Dawley rat at 30 mg/kg, po by LC-MS/MS analysis. It counts as ADME, organism-based. The settings on record: in vivo.
Series [35] is described as follows: Ratio of drug level in brain to plasma of Sprague-Dawley rat at 30 mg/kg, po measured after 1 hr by LC-MS/MS analysis. It counts as ADME, organism-based. The following applies: brain and plasma, read-out: BPR.
Series [36] can be described thus: Oral bioavailability in Sprague-Dawley rat at 30 mg/kg by LC-MS/MS analysis. The following applies: in vivo. It counts as ADME, organism-based.
Series [37] is described as follows: Toxicity in DAT knockout C57BL/6J mouse assessed as hypothermia at 10 to 100 mg/kg, po. The following applies: in vivo. Format: organism-based.
Series [38] in a line: Toxicity in DAT knockout C57BL/6J mouse assessed as hypotension at 10 to 100 mg/kg, po. Format: organism-based. The following applies: in vivo.

Molecules are shown by their SMILES. Calls of active or inactive are those of the source. The rule behind the calls is not given here. Numbered stars: 1 amine (or outer) side, 2 acyl side, 3 side chain; on linkers, the order of the positions; unused ones are H or OH. Square brackets hold non-standard residues; d marks the D form. Peptide text beside a SMILES is read from it. X1 = NCCCC[C@H](N)CN([C@@H](CCCCN)C(=O)[*:2])[*:1]; Tle = CC(C)(C)[C@H](N)C(=O)O

Sequence of Neurotensin receptor type 1 (Mus musculus) (O88319 whole entry): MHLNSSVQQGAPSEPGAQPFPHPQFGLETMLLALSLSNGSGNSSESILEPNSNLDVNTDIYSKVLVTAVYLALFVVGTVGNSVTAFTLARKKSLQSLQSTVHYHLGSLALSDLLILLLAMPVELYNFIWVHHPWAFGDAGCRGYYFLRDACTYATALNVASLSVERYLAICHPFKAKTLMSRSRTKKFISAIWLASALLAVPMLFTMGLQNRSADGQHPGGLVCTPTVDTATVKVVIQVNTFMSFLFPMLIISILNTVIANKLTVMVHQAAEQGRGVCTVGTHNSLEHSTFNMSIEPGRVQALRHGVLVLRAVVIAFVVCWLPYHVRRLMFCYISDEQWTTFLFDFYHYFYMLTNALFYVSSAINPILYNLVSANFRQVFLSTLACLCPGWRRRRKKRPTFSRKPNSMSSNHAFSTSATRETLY
Sequence of 5-hydroxytryptamine receptor 2B (Homo sapiens) (P41595 whole entry): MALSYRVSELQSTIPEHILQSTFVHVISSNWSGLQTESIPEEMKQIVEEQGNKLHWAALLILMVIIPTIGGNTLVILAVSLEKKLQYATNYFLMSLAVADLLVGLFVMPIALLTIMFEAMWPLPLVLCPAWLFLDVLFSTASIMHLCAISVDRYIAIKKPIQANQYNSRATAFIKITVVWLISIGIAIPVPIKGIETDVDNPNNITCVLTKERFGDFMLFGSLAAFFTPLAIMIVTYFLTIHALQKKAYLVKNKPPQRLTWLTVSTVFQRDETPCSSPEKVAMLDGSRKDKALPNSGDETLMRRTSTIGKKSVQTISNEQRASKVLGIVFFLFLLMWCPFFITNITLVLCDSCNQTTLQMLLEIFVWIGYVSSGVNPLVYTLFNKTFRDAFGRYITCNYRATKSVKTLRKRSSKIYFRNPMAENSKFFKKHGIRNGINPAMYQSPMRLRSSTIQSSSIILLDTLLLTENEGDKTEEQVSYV
Sequence of Kappa-type opioid receptor (Homo sapiens) (P41145 whole entry): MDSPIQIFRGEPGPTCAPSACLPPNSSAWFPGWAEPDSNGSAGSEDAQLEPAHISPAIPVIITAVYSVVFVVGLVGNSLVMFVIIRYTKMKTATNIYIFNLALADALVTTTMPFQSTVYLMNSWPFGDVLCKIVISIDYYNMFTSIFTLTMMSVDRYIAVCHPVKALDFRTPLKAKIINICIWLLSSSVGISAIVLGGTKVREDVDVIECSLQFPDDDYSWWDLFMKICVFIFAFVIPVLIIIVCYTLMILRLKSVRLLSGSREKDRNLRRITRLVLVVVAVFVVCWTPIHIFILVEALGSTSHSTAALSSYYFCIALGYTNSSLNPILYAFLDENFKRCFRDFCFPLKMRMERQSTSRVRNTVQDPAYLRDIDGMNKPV
Sequence of Neurotensin receptor type 1 (Rattus norvegicus, UniProt P20789) (P20789 whole entry): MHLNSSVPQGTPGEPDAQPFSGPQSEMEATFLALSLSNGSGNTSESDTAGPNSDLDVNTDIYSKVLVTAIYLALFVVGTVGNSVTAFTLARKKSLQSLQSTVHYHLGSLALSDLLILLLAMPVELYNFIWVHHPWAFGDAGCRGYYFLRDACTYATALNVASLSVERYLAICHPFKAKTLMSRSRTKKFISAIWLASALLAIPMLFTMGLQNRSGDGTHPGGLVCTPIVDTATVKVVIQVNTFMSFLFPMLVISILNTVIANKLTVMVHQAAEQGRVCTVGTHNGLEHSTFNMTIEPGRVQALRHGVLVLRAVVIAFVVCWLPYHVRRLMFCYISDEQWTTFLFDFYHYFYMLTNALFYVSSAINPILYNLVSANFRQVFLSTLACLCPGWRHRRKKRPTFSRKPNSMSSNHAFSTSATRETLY
Sequence of G-protein coupled receptor 35 (Homo sapiens) (Q9HC97 whole entry): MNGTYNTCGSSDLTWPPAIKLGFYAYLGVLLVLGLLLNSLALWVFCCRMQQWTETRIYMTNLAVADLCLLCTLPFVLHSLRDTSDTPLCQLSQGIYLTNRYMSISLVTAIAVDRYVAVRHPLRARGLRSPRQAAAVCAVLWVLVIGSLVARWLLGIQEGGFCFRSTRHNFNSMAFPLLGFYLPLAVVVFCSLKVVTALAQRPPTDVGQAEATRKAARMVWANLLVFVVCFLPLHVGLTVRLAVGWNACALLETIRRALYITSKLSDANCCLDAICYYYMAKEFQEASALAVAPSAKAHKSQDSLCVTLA
Sequence of D(1A) dopamine receptor (Homo sapiens) (P21728 whole entry, the tested form may be a part): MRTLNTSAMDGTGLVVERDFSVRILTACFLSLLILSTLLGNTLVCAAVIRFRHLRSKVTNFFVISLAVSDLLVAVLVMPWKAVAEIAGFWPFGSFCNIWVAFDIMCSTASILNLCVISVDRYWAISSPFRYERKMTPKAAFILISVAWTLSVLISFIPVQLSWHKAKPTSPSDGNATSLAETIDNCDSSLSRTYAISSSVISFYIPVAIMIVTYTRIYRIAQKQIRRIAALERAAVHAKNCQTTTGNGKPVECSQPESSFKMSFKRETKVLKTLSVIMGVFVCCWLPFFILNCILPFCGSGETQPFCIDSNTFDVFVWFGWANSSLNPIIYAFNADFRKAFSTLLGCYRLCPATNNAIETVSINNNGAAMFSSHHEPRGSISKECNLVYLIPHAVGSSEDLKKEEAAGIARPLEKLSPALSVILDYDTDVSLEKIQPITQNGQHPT
Sequence of Histamine H1 receptor (Homo sapiens) (P35367 whole entry): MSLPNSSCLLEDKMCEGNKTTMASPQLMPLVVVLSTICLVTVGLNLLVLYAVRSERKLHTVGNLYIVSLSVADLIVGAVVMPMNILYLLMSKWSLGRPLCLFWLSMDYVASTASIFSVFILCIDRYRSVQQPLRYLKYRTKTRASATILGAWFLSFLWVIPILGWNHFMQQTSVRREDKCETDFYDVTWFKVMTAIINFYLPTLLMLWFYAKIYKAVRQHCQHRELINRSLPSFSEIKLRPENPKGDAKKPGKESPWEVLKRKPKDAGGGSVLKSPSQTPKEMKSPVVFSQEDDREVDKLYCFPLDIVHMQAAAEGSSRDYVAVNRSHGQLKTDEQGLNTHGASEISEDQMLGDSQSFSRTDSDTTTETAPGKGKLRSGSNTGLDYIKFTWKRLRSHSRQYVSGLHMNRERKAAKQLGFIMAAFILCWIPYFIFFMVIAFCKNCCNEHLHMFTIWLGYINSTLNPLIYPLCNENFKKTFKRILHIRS

For `CCOC(=O)[C@H](CC(C)C)NC(=O)[C@@H](NC(=O)[C@H](Cc1c[nH]c2ccccc12)NC(=O)[C@@H]1CCCN1C(=O)[C@H](CCCCN)NC[C@@H](N)CCCCN)C(C)(C)C` (H-[X1]PW[Tle]L-OEt), the Activity result in series [1] and in series [2] was “Toxic” in each case.

For orientation: Emax means the maximal effect, on the per cent scale that the assay sets. `COc1ccccc1C1CCN(c2nc(C3(F)CC3)nc3ccc(N(C)CCO)cc23)CC1` [listing 1 of 2 here]: the Activity in series [3] worked out at 55%; in [8] it was 75%; in series [10], 42%; in series [15] it was 36%. In addition, the result in series [4], in series [6], in series [11], in series [13], in series [16] and in series [17] was inactive. Also, the outcome in [18] was inactive. Further, the outcome (in series [5]; in the series with Mus musculus [7]; in the series with Mus musculus [9]) was Active. Besides, the maximal effect (Emax) in series [12] came out at 140%; in [14], 100%.

As a reminder, the Vd is a proportionality between amount in the body and measured concentration, not a real space. Read a high Vd as extensive tissue distribution. Usually EC50 stands for the concentration at which the effect is half-maximal. As a reminder, the clearance is a measure of how efficiently the substance is removed, as volume per time. A high value points to efficient removal. Take `COc1ccccc1C1CCN(c2nc(C3(C)CC3)nc3ccc(N(C)CCO)cc23)CC1`: the Vd in [19] came out at 7.68 L/kg. For the same compound, the concentration for a half-maximal effect (EC50) in [20] worked out at 98 nM. This compound gave a clearance in series [21] of 79.4 mL/min/kg.

A word on the IC50: it is the point on the concentration scale where inhibition reaches its midpoint. A higher IC50 goes with lower potency. `COc1cccc(OC)c1-c1cc(C(=O)NC2(C(=O)O)C3CC4CC(C3)CC2C4)nn1-c1ccnc2cc(Cl)ccc12` (centres undefined) [REMINERTANT] registered an IC50 in series [22] of 82 nM.

`COc1ccccc1C1CCN(c2nc(C3(F)CC3)nc3ccc(N(C)CCO)cc23)CC1` [listing 2 of 2 here]: the concentration giving a half-maximal response (EC50) in series [23] is 140 nM; in [20], 340 nM. Also, the Activity entry in series [24] and in series [27] was “Non-Toxic” throughout. Moreover, in [25], the Kp is 0.98. The clearance is 81 mL/min/kg in series [26] and 44.8 mL/min/kg in series [21].

Usually Cmax stands for the highest concentration seen after dosing. A word on the AUC: it is concentration integrated over time. As for `COc1ccccc1C1CCN(c2nc(C3(C)CC3)nc3ccc(N(C)CCO)cc23)CC1.Cl`, the peak concentration (Cmax) in [28] stood at 627 ng/mL. The BPR in series [29] was determined as 0.35. The F in [30] (mouse) turned out to be 52%. This compound also returned a t1/2 in series [31] of 2.9 h. This compound gave an AUC in [32] of 3324 ng·h/mL.

Broadly, the bioavailability is the share of a dose that reaches the circulation, judged against a reference dose that is usually intravenous. In the case of `COc1ccccc1C1CCN(c2nc(C3(F)CC3)nc3ccc(N(C)CCO)cc23)CC1.Cl`, the t1/2 is 2.23 h in series [33] and 5.28 h in series [31]. In addition, the BPR in [29] is recorded as 0.54. Further, the values for the exposure (AUC) in series [34] and in series [32] were 2693 ng·h/mL and 4824 ng·h/mL, respectively. Further, the Kp at 1 h in [35] was found to be 0.98. For the same compound, the bioavailability is 45% in series [30] (C57BL/6, mouse) and 48% in series [36]. Besides, the Activity result in [37] and in series [38] was “Non-Toxic” in each case.

These data come from ChEMBL document CHEMBL4373709 (J Med Chem, 2019).
